Laboratory results taken from publication PMC5458547, “Discovery of first-in-class reversible dual small molecule inhibitors against G9a and DNMTs in hematological malignancies” (Nature Communications, 2017).
Like-named read-outs stand apart in the source and are kept apart here.

How the values were obtained:
[1] = test system: SU-DHL-8; test: Cell proliferation assay (MTS); format: cell-based; conditions: Homo sapiens, ABC-DLBCL, 48 h
[2] = test system: BxPC3; test: Cell proliferation assay (MTS); format: cell-based; conditions: Homo sapiens, BXPC-3; Pancreas
[3] = test system: RT-4; test: Cell proliferation assay (MTS); format: cell-based; conditions: Homo sapiens, Bladder
[4] = test system: HT; test: Cell proliferation assay (MTS); format: cell-based; conditions: Homo sapiens, GC-DLBCL, 48 h
[5] = test system: CEMO-1 cells; test: ALL CEMO-1 xenograft survival; format: in vivo, mice; conditions: 1 mg/kg i.v. daily for 28 days
Description: Statistical results were calculated using the statistical software medcalc.
270 nM for MV4-11 cell line and 200 and 400 nM for OCI-Ly10). Extracellular HMGB1 from 48 h cell culture supernatants was quantified by means of the HMGB1 ELISA Kit II (Shino Test Corp.), following the manufacturer's instructions.
All animal studies had previous approval from the Animal Care and Ethics Committee of the University of Navarra, whereas experiments that used patient samples were approved by the Human Research Ethics Committees of University of Navarra.
The human ALL CEMO-1 xenograft mice model was generated by intravenously (i.v.) injection of 10x10^6 cells diluted in 100 µL of saline solution in the tail vein of a 6-8-week-old female BALB/cA- Rag2-/-γc-/- mice (n=12). Three days after injection, antitumor treatment was started intravenously in 6 mice. 1 mg/kg […]
The control group (n=6) received only
The mice weight was controlled and stable during the treatment.
Statistical results were calculated using the statistical software medcalc. […]
consecutive days. […] Statistical results were calculated using the statistical software medcalc. […]
The control group (n=6) received only saline solution. […] Statistical results were calculated using the statistical software medcalc. […]
washout period, hematological and liver parameters were measured. […]
washout period hematological and liver parameters were measured. […]

[6] = test system: OCI-Ly1; test: Cell proliferation assay (MTS); format: cell-based; conditions: Homo sapiens, GC-DLBCL, 48 h
[7] = target: T1, BRD1 (Homo sapiens, UniProt O95696); test: Epigenetics selectivity panel (BPS Bioscience); format: binding
T1 construct: purchased DiscoverX KINOMEscan (kinases); BPS Bioscience (epigenetic targets)

[8] = test system: DB; test: Cell proliferation assay (MTS); format: cell-based; conditions: Homo sapiens, GC-DLBCL, 48 h
[9] = test system: OCI-Ly7; test: Cell proliferation assay (MTS); format: cell-based; conditions: Homo sapiens, GC-DLBCL, 48 h
[10] = test system: Mia Paca-2; test: Cell proliferation assay (MTS); format: cell-based; conditions: Homo sapiens, Pancreas
[11] = test system: LAL-CUN-13; test: Cell proliferation assay (MTS); format: cell-based; conditions: Homo sapiens; ALL, 48 h
[12] = test system: PFEIFFER; test: Cell proliferation assay (MTS); format: cell-based; conditions: Homo sapiens, GC-DLBCL, 48 h
[13] = test system: J82; test: Cell proliferation assay (MTS); format: cell-based; conditions: Homo sapiens, Bladder
[14] = test system: 5637; test: Cell proliferation assay (MTS); format: cell-based; conditions: Homo sapiens; Bladder
[15] = test system: OCI-Ly10; test: Cell proliferation assay (MTS); format: cell-based, human; conditions: ABC-DLBCL, 48 h, read-out: GI50

T1 sequence (O95696 whole entry): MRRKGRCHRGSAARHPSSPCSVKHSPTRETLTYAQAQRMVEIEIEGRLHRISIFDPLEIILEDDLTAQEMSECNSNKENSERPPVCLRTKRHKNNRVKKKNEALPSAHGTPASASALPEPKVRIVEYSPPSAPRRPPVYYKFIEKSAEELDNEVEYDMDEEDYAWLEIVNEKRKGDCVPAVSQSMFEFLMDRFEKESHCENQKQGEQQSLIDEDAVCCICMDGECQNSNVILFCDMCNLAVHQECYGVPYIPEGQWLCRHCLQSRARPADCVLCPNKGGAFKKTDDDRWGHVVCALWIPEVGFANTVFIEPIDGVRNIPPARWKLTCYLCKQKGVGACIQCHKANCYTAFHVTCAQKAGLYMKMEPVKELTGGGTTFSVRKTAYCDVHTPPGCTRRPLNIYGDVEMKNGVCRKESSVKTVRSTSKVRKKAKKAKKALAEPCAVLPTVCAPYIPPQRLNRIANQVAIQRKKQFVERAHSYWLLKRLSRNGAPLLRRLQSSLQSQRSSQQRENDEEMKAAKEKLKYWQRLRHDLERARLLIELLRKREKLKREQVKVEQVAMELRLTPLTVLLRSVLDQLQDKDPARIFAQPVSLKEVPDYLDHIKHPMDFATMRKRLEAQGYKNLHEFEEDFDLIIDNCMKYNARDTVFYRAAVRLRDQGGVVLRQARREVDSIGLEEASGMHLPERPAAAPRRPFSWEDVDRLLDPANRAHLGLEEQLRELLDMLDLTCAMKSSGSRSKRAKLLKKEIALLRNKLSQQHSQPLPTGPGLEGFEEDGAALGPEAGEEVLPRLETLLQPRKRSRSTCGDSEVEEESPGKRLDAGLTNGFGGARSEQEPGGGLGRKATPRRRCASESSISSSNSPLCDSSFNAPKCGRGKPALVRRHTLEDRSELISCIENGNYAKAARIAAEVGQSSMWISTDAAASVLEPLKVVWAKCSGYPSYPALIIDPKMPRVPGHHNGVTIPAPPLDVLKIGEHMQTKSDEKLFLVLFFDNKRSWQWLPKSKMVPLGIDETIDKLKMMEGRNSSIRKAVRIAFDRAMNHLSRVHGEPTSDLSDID

Compound	GI50 [1]	GI50 [2]	GI50 [3]	GI50 [4]	survival [5]	GI50 [6]	inhibition at 10 µM [7]	GI50 [8]	GI50 [9]	GI50 [10]	GI50 [11]	GI50 [12]	GI50 [13]	GI50 [14]	GI50 [15]	GI50 ([15]; Homo sapiens, OCI-Ly10, 48 h)
COc1cc2c(NC3CCN(C)CC3)cc(-c3ccc(C)o3)nc2cc1OCCCN1CCCC1 [CM-272, 6-methoxy-2-(5-methyl-2-furyl)-N-(1-methyl-4-piperidyl)-7-(3-pyrrolidin-1-ylpropoxy)quinolin-4-amine]	1950 nM	319 nM	817 nM	1170 nM	not able to prolong survival	1010 nM	0%	1310 nM	534 nM	206 nM	1400 nM	1220 nM	> 10000 nM	717 nM		
COc1cc2c(NCC3CCN(C)CC3)cc(-c3ccc(C)o3)nc2cc1OCCCN1CCCC1 [CM-579, 6-methoxy-2-(5-methyl-2-furyl)-N-[(1-methyl-4-piperidyl)methyl]-7-(3-pyrrolidin-1-ylpropoxy)quinolin-4-amine]															< 31 nM	31 nM
